Assay [1] deals with p21 induction in HCT116 cells. Briefly: p21 induction in HCT116 cells. The class given is cell-based. To be noted: Homo sapiens, HCT-116, 24 h, HCT116 cells, 24 h compound incubation; read-out: P21_EC50. As to the method: The colon carcinoma cell line HCT116 was obtained from ATCC and cultured in growth medium consisting of Mccoy's 5A Medium (Gibco 16600108) supplemented with 10% FBS (Transgene FS201-02) and 100 units/mL penicillin-streptomycin (Gibco 15140122) and maintained at 37° C. under 5% CO2. On the day of seeding, 2,000 cells in 30 μL of culture media were plated per well to Poly-D-Lysine 384 Well Black Clear Plates (Biocoat 356663) and incubated overnight at 37° C. under 5% CO2. The following day, compounds were serially diluted in DMSO for a total of 11 test concentrations. […] Next, 150 nL of diluted compound was added in duplicate to the assay plate, using an Echo 655 (Labcyte). The plate was centrifuged at 500 RPM for 1 min and then incubated at 37° C. under 5% CO2 for 24 h. After 24 h, medium was removed, and cells were fixed by adding 40 μL of 4% paraformaldehyde solution to each well and incubated for 20 min at room temperature. The plate was then washed 4 times with 100 μL per well of wash buffer (PBS with 0.1% Tween-20) using a microplate washer. Next, 30 μL of ice-cold methanol was added to each well and the plate was incubated at −20° C. for 10 min. The plate was washed 4 times with 100 μL per well of wash buffer by a microplate washer, then 30 μL per well of blocking buffer (Intercept PBS blocking buffer (LI-COR 927-70001) with 0.05% Tween-20) was added and the plate was incubated at room temperature with shaking for 2 h. Next, to each test well, 20 μL of primary antibody solution (p21 Waf1/CIP (12D1) RabbitmAb (Cell Signaling Technologies 2947) diluted 1:1000 and GAPDH (D4C6R) Mouse mAb (Cell Signaling Technologies 97166) diluted 1:2000 in blocking buffer) was added and the plate was placed at 4° C., overnight. The following day, the plate was washed 5 times with 100 μL per well of wash buffer using a microplate washer for 5 min. 20 μL per well of secondary antibody (IRDye 680CW Goat anti-Mouse IgG (H+L) (LI-COR 926-68070) diluted 1: 2000 in Blocking Buffer and IRDye 800CW Goat anti-Rabbit IgG (H+L) (LI-COR 926-32211) diluted 1: 2000 in Blocking Buffer) was then added and the plate was stored for 2 h in the dark at room temperature with shaking. The plate was then washed 4 times with 100 μL per well of wash buffer again using a microplate washer. Finally, the p21 signal and the GAPDH signal were quantified using a LI-COR Odyssey CLx Imager machine reading at 800 nm and 700 nm, respectively. Each plate contained DMSO control (low control) and an internal reference WRN inhibitor (high control) respectively. […] EC50 values for each compound were generated after non-linear regression curve fitting using commercially available software.

For assay [2], the target named is WRN (BV08), human Werner helicase (Uniprot Q14191, amino acids 517-1235 with L1074F point mutation) (Homo sapiens (Human), UniProt Q14191, L1074F). Put plainly: WRN (BV08) ADP-Glo assay. The format is biochemical. To be noted: class symbols A-E, read-out: ADP-Glo_hWRN_IC50. As to the method: Bovine skin gelatin (BSG), dimethyl sulfoxide (DMSO), Pluronic F-127 and tris(2-carboxyethyl)phosphine hydrochloride solution (TCEP) were purchased from Sigma-Aldrich (St. Louis, MO) at the highest level of purity possible. […] DNA strands were annealed by heating to 95° C. for 5 minutes followed by slow cooling to room temperature. Compounds in 100% DMSO (0.1 μl) were spotted into a 384-well white polystyrene Optiplate-384 (Perkin Elmer; Waltham, MA) assay plate using a LabCyte Echo 550 (Agilent; Santa Clara, CA). DMSO (0.1 μl) was added to columns 12, rows A-H and column 24, rows I-P for the maximum signal control. […] Compounds/DMSO were preincubated for 15 minutes at 25° C. with 5 μl 2×WRN (BV08), prepared as described below, in assay buffer containing 20 mM Bicine (pH=7.5), 1 mM MgCl2, 10 mM KCl, 0.1% Pluronic F-127, 0.005% BSG, 1 mM TCEP. The reaction was initiated by the addition of 5 μl 2× substrate mixture in assay buffer and incubated for 60 minutes at 25° C. The final concentrations of the assay components were 0.15 nM WRN, 5 μM ATP, and 0.1 nM DNA duplex. The final DMSO concentration was 1% and the reference compound concentration (NSC-617145) used for the minimal signal control was 20 μM. The reaction was stopped by the addition of the ADP-Glo Kit components (Promega; Madison, WI) as directed and the relative luminescence units (RLU) were read on an Envision 2104 (Perkin Elmer; Waltham, MA). % inhibition calculation:
[formula] • Where RLU=relative luminescence units, sample=signal in sample well, and MIN and MAX are the respective minimum and maximum signal controls.
[formula] • Where top and bottom are normally allowed to float but may be fixed at 100 or 0 respectively in a 3-parameter fit. Y is the % inhibition and X is the compound concentration.
Molecular Biology and virus production. […] The baculovirus from the expression plasmid WRN—BV08 was generated from transfection and amplification following the manufacturer's instructions.
Sf9 cells grown in SF900II media were infected with 1:200 WRN—BV08 P2 virus and incubated for protein expression for 72 h at 27° C. The WRN protein was purified using the following protocol. The cell pellets were thawed and resuspended in buffer A (50 mM Tris, pH 7.5, 500 mM NaCl, 1 mM TCEP, 10% Glycerol) supplemented with 0.5% CHAPS, 1 mM PMSF, 1 μg/ml Leupeptin, 1 μg/ml Pepstatin, and the Pierce Universal Nuclease and cocktail tablet. Cleared lysates were loaded onto a Ni Sepharose™ excel column and washed with buffer A and bound protein was eluted with buffer A supplemented with 300 mM imidazole. The eluted protein was dialyzed against buffer A and digested by His-tagged TEV (1:5 ratio) overnight at 4° C. ZnCl2 was added into the sample at final 15 μM before loading onto a second Ni Sepharose™ excel column. Untagged WRN protein was eluted from the column with buffer A supplemented with 20 mM imidazole, dialyzed overnight into buffer B (50 mM Tris, pH 7.5, 1 mM TCEP, 10% Glycerol) supplemented with 150 mM NaCl and loaded onto a Heparin column. Proteins were eluted with a step gradient of buffer B supplemented with 150 mM, 200 mM, 300 mM and 500 mM NaCl. WRN containing fractions were pooled and concentrated prior to loading on to size exclusion chromatography using a HiLoad 16/600 Superdex™ 200 pg column (GE Healthcare) in buffer C (20 mM HTEPES, pH 7.5, 250 mM NaCl, 0.25 mM TCEP, […]).
On the technique in general: In ADP-Glo the light output rises with the ADP produced.

Our source for the EC50 and IC50 values is US20250034136A1 (Nimbus Wadjet, Inc., priority 2023, published 2025).

Molecules are shown by their SMILES.

WRN (BV08), human Werner helicase (Uniprot Q14191, amino acids 517-1235 with L1074F point mutation), sequence (Q14191 other isoform, or with tags, fused parts or gaps L1074F (already in the parent)): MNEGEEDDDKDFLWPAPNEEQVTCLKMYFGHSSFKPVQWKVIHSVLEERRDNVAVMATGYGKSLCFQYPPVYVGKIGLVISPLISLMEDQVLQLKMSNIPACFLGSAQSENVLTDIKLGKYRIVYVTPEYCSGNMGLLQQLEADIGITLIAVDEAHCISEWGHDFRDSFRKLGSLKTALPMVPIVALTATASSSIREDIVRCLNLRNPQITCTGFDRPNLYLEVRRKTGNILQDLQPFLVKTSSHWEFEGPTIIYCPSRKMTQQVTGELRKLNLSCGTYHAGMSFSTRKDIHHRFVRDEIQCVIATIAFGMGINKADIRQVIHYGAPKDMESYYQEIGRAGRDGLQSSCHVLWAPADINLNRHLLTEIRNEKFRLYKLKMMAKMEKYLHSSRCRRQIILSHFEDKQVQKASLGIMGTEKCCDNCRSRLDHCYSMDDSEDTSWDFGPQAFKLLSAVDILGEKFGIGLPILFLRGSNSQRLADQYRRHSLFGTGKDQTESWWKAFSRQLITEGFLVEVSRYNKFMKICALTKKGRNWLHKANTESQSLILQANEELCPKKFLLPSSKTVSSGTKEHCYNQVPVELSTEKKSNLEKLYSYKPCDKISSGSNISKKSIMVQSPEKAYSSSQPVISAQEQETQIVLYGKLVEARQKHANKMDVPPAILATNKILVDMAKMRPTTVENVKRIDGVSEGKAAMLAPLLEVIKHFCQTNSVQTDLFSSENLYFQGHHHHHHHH

For `CCc1c(N2CCN(C(=O)c3ncnc(C)c3O)[C@H]3CCC32)c(=O)c2nc(OC)c(C)nc2n1CC(=O)Nc1ccc(C(F)(F)F)cc1Cl` (mixture of isomers) [I-16, rac-N-(2-chloro-4-(trifluoromethyl)phenyl)-2-(6-ethyl-7-(5-(5-hydroxy-6-methylpyrimidine-4-carbonyl)-2,5-diazabicyclo[4.2.0]octan-2-yl)-2-methoxy-3-methyl-8-oxopyrido[2,3-b]pyrazin-5(8H)-yl)acetamide], in assay [1], the EC50 lay in the range of 0.5 to 2 µM. Besides, the IC50 in assay [2] is 0.005 to 0.05 µM.
The matching figures for `CCc1c(N2CCN(C(=O)c3ncnc(C)c3O)[C@H]3CC[C@@H]32)c(=O)c2nc(NC)cnc2n1CC(=O)Nc1ccc(C(F)(F)F)cc1Cl` (racemic) [I-97, rac-N-(2-chloro-4-(trifluoromethyl)phenyl)-2-(6-ethyl-7-(-5-(5-hydroxy-6-methylpyrimidine-4-carbonyl)-2,5-diazabicyclo[4.2.0]octan-2-yl)-2-(methylamino)-8-oxopyrido[2,3-b]pyrazin-5(8H)-yl)acetamide]: under 0.5 µM and 0.005 to 0.05 µM.
The matching figures for `CCc1c(N2CCN(C(=O)c3ncnc(C)c3O)[C@@H]3CC[C@H]32)c(=O)c2nc(C=C3CCC3)cnc2n1CC(=O)Nc1ccc(C(F)(F)F)cc1Cl` (racemic) [I-135]: under 0.5 µM and 0.005 to 0.05 µM.
As to `CCO/C=C/c1cnc2c(n1)c(=O)c(N1CCN(C(=O)c3ncnc(C)c3O)[C@H]3CC[C@@H]31)c(CC)n2CC(=O)Nc1ccc(C(F)(F)F)cc1Cl` (racemic) [I-136, rac-N-[2-chloro-4-(trifluoromethyl)phenyl]-2-{2-[(1E)-2-ethoxyethenyl]-6-ethyl-7-[-5-(5-hydroxy-6-methylpyrimidine-4-carbonyl)-2,5-diazabicyclo[4.2.0]octan-2-yl]-8-oxo-5H,8H-pyrido[2,3-b]pyrazin-5-yl}acetamide], the EC50 in assay [1] was under 0.5 µM. Moreover, the IC50 in assay [2] lay in the range of 0.005 to 0.05 µM.
The matching figures for `CCc1c(N2CCN(C(=O)c3c(O)ccnc3OC)[C@@H]3CC[C@H]32)c(=O)c2nc(N(C)C)cnc2n1CC(=O)Nc1ccc(C(F)(F)F)cc1Cl` (racemic) [I-139, rac-N-[2-chloro-4-(trifluoromethyl)phenyl]-2-[2-(dimethylamino)-6-ethyl-7-[-5-(4-hydroxy-2-methoxypyridine-3-carbonyl)-2,5-diazabicyclo[4.2.0]octan-2-yl]-8-oxo-5H,8H-pyrido[2,3-b]pyrazin-5-yl]acetamide]: 0.5 to 2 µM and 0.005 to 0.05 µM.
The corresponding values for `CCc1c(N2CCN(C(=O)c3ncnc(C)c3O)CC2)c(=O)c2nc(N(C)[C@H]3CC[C@@H]3OC)cnc2n1CC(=O)Nc1ccc(C(F)(F)F)cc1Cl` (racemic) [I-143, rac-N-(2-chloro-4-(trifluoromethyl)phenyl)-2-(6-ethyl-7-(4-(5-hydroxy-6-methylpyrimidine-4-carbonyl)piperazin-1-yl)-2-((2-methoxycyclobutyl)(methyl)amino)-8-oxopyrido[2,3-b]pyrazin-5(8H)-yl)acetamide] are 2 to 5 µM and 0.005 to 0.05 µM.
The matching figures for `CCc1c(N2CCN(C(=O)c3ncnc(C)c3O)CC2)c(=O)c2nc(N(C)[C@H]3CC[C@H]3OC)cnc2n1CC(=O)Nc1ccc(C(F)(F)F)cc1Cl` (racemic) [I-146, rac-N-(2-chloro-4-(trifluoromethyl)phenyl)-2-(6-ethyl-7-(4-(5-hydroxy-6-methylpyrimidine-4-carbonyl)piperazin-1-yl)-2-((2-methoxycyclobutyl)(methyl)amino)-8-oxopyrido[2,3-b]pyrazin-5(8H)-yl)acetamide]: 2 to 5 µM and 0.005 to 0.05 µM.
In the case of `CCc1c(N2CCN(C(=O)c3ncnc(C)c3O)CC2)c(=O)c2nc(N3CC[C@@H]4CC[C@@H]43)cnc2n1CC(=O)Nc1ccc(C(F)(F)F)cc1Cl` (racemic) [I-230, rac-2-(2-(2-azabicyclo[3.2.0]heptan-2-yl)-6-ethyl-7-(4-(5-hydroxy-6-methylpyrimidine-4-carbonyl)piperazin-1-yl)-8-oxopyrido[2,3-b]pyrazin-5(8H)-yl)-N-(2-chloro-4-(trifluoromethyl)phenyl)acetamide], the EC50 in assay [1] was under 0.5 µM. In addition, in assay [2], the IC50 lay within 0.005 to 0.05 µM.
Take `CCc1c(N2CCN(C(=O)c3ncnc(C)c3O)[C@H]3CC(F)(F)C[C@@H]32)c(=O)c2nc(N(C)C)cnc2n1CC(=O)Nc1ccc(C(F)(F)F)cc1Cl` (racemic) [I-291, rac-N-(2-chloro-4-(trifluoromethyl)phenyl)-2-(7-(6,6-difluoro-4-(5-hydroxy-6-methylpyrimidine-4-carbonyl)octahydro-1H-cyclopenta[b]pyrazin-1-yl)-2-(dimethylamino)-6-ethyl-8-oxopyrido[2,3-b]pyrazin-5(8H)-yl)acetamide]: the EC50 in assay [1] was in the range of 2 to 5 µM. Further, in assay [2], the IC50 lay within 0.005 to 0.05 µM.
The matching figures for `CCc1c(N2CCN(C(=O)c3ncnc(C)c3O)[C@H]3CC[C@@H]32)c(=O)c2nc(N3CC[C@H]4C[C@H]43)cnc2n1CC(=O)Nc1ccc(C(F)(F)F)cc1F` (relative stereo) [I-122, 2-(2-((1R*,5S*)-2-azabicyclo[3.1.0]hexan-2-yl)-6-ethyl-7-((1S,6S)-5-(5-hydroxy-6-methylpyrimidine-4-carbonyl)-2,5-diazabicyclo[4.2.0]octan-2-yl)-8-oxopyrido[2,3-b]pyrazin-5(8H)-yl)-N-(2-fluoro-4-(trifluoromethyl)phenyl)acetamide]: under 0.5 µM and at most 0.005 µM.
